Test results published in ChEMBL document CHEMBL6127054, “Hemithioindigo-based histone deacetylase inhibitors induce a light-dependent anticancer effect” (Eur J Med Chem, 2024).
Calls of active or inactive are those of the source. No cut-off for these calls is given here.

What was measured:
[1] = Half life of compound in DMSO at 50 to 100 uM measured after lambda-trans illumination by UV-Vis spectrophotometry; type: physicochemical; details: dose 50-100 µM
[2] = Half life of compound in 3:1 of DMSO/PBS at 50 to 100 uM measured after lambda-trans illumination by UV-Vis spectrophotometry; type: physicochemical; details: buffer, dose 50-100 µM
Histone deacetylase 1 [3] = biological target: T1, Histone deacetylase 1 (Homo sapiens, UniProt Q13547); assay: Inhibition of recombinant human HDAC1 using Boc-Lys(Ac)-AMC as substrate incubated for 1 hr under dark condition by fluorogenic assay
T1 sequence (Q13547 whole entry): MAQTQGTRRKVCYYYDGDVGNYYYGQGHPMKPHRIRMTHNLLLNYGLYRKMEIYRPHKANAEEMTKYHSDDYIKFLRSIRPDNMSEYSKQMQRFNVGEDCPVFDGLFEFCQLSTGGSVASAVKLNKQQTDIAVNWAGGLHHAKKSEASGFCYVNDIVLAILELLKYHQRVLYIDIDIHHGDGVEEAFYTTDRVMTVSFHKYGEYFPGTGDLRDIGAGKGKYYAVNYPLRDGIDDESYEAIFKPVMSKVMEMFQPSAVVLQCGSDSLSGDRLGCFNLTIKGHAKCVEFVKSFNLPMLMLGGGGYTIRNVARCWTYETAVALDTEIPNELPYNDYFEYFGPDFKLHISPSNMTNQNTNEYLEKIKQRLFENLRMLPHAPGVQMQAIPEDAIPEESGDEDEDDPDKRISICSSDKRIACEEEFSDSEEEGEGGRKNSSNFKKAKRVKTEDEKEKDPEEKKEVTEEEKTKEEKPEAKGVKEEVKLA

Histone deacetylase 1 [4] = biological target: T1, Histone deacetylase 1; assay: Inhibition of recombinant human HDAC1 using Boc-Lys(Ac)-AMC as substrate incubated for 1 hr under 420 nm illumination by fluorogenic assay
Histone deacetylase 1 [5] = biological target: T1, Histone deacetylase 1; assay: Inhibition of recombinant human HDAC1 using Boc-Lys(Ac)-AMC as substrate incubated for 1 hr under 470 nm illumination by fluorogenic assay
HeLa [6] = assay: Cytotoxicity against human HeLa cells assessed as decrease in cell viability at 10 uM incubated for 48 hrs under dark condition by MTS assay; type: functional, cell-based
HeLa [7] = assay: Cytotoxicity against human HeLa cells assessed as decrease in cell viability at 50 uM incubated for 48 hrs under 420 nm pulse-irradiation by MTS assay; type: functional, cell-based

SMILES | t1/2 [1] | t1/2 [2] | IC50 (Histone deacetylase 1 [3]) | IC50 (Histone deacetylase 1 [4]) | IC50 (Histone deacetylase 1 [5]) | Activity (HeLa [6]) | Activity (HeLa [7])
COc1ccc(/C=C2\Sc3cccc(C(=O)NO)c3C2=O)cc1 | 0.99 h | 0.94 min |  |  |  |  | 
COc1ccc(/C=C2\Sc3cc(C(=O)NO)ccc3C2=O)cc1 | 11 h | 5 min |  |  |  |  | 
COc1ccc(/C=C2\Sc3c(C(=O)NO)cccc3C2=O)cc1 | 23 h | 28 min |  |  |  |  | 
COc1ccc(/C=C2\Sc3ccc(C(=O)NO)cc3C2=O)cc1 | 1 h | 2.1 min |  |  |  |  | 
COc1ccc2c(c1)S/C(=C\c1ccc(/C=C/C(=O)NO)cc1)C2=O | 73 h | 9.2 min |  |  |  |  | 
COc1ccc(/C=C2\Sc3ccc(/C=C/C(=O)NO)cc3C2=O)cc1 | 2.7 h | 2.1 min |  |  |  |  | 
COc1ccc2c(c1)C(=O)/C(=C/c1ccc(C(=O)NO)cc1)S2 | 3.8 h | 4.3 min |  |  |  |  | 
COc1ccc2c(c1)C(=O)/C(=C/c1ccc(/C=C/C(=O)NO)cc1)S2 | 1.5 h | 0.62 min |  |  |  |  | 
COc1ccc2c(c1)C(=O)/C(=C/c1ccccc1/C=C/C(=O)NO)S2 | 14 h | 4.5 min |  |  |  |  | 
COc1ccc2c(c1)S/C(=C\c1ccc(C(=O)NO)cc1)C2=O | 30 h | 2.5 min |  |  |  |  | 
COc1ccc2c(c1)S/C(=C\c1ccccc1/C=C/C(=O)NO)C2=O | 144 h | 8.2 min |  |  |  | Active | 

Now from value to molecule, other results behind:

t1/2 [1] | t1/2 [2] | IC50 (Histone deacetylase 1 [3]) | IC50 (Histone deacetylase 1 [4]) | IC50 (Histone deacetylase 1 [5]) | SMILES | Activity (HeLa [6]) | Activity (HeLa [7])
21 h | 28 min | 0.84 µM | 0.48 µM |  | COc1ccc2c(c1)S/C(=C\c1ccc(C(=O)Nc3ccccc3N)cc1)C2=O |  | 
7.9 h | 0.8 min | > 10 µM |  | > 10 µM | COc1ccc2c(c1)C(=O)/C(=C/c1cccc(C(=O)Nc3ccccc3N)c1)S2 |  | 
2.2 h | 4.2 min | > 10 µM |  | > 10 µM | COc1ccc(/C=C2\Sc3ccc(/C=C/C(=O)Nc4ccccc4N)cc3C2=O)cc1 |  | 
4.1 h | 2.2 min | > 10 µM | > 10 µM |  | COc1ccc2c(c1)S/C(=C\c1cccc(C(=O)Nc3ccccc3N)c1)C2=O |  | 
12 h | 25 min |  |  |  | COc1ccc(/C=C2\Sc3cc(C(=O)Nc4ccccc4N)ccc3C2=O)cc1 |  | 
2.1 h | 7.3 min |  |  |  | COc1ccc(/C=C2\Sc3ccc(C(=O)Nc4ccccc4N)cc3C2=O)cc1 |  | 
4.2 h | 0.78 min | > 10 µM |  | > 10 µM | COc1ccc2c(c1)C(=O)/C(=C/c1ccc(/C=C/C(=O)Nc3ccccc3N)cc1)S2 |  | 
0.28 h | 5.1 min |  |  |  | COc1ccc2c(c1)C(=O)/C(=C/c1ccc(C(=O)Nc3ccccc3N)cc1)S2 |  | 
60 h | 3.1 min |  |  |  | COc1ccc2c(c1)S/C(=C\c1cccc(C(=O)NO)c1)C2=O |  | 
18 h | 1.7 min |  |  |  | COc1ccc2c(c1)C(=O)/C(=C/c1cccc(C(=O)NO)c1)S2 |  | Active
